The record followed here is patent US9695154B2, “Heteroaryl inhibitors of sumo activating enzyme” (MILLENNIUM PHARMACEUTICALS, INC., priority 2013, dated 2017).

The target in the assay is T1, recombinant human SAE enzyme (Homo sapiens, UniProt Q9UBT2).
T1 sequence (Q9UBT2 1-640): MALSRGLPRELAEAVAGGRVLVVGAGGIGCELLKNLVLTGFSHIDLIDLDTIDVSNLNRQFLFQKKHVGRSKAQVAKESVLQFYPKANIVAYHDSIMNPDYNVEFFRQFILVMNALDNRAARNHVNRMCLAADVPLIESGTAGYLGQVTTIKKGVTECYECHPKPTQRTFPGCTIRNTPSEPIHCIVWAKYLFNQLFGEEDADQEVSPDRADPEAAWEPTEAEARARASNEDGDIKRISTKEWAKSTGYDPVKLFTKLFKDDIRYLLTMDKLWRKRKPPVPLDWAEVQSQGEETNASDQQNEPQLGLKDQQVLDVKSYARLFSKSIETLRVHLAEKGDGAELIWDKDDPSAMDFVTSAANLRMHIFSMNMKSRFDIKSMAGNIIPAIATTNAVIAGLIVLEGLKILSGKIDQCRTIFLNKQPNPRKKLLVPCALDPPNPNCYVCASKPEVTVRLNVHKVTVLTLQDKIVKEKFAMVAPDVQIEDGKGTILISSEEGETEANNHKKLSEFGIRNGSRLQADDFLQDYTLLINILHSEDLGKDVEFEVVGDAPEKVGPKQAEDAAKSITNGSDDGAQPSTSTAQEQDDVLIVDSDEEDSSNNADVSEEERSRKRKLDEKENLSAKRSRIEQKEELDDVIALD
T1 sequence (Q9UBE0 1-346 partner): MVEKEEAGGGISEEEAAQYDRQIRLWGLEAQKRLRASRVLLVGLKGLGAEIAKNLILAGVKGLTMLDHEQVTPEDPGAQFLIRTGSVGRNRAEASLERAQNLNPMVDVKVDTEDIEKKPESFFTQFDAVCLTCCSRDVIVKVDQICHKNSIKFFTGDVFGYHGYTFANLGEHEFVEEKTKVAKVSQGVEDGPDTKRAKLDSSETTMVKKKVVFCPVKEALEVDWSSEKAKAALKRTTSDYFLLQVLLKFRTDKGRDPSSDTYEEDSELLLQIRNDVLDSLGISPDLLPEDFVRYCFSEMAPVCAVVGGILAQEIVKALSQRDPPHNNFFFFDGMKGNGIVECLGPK
As to the kind of experiment: SAE HTRF Enzyme Assay. Particulars: for IC50: class symbols A-C; for Percent Inhibition / inhibition at 0.111 µM: compound concentration 0.111 μM; for Percent Inhibition: 0.111 µM; for inhibition at 0.111 µM: read-out: Percent Inhibition. The class given is biochemical. As for the experimental part: The SAE enzymatic reaction totals 50 μl and contains 50 mM HEPES Hemisodium (pH 7.5), 0.05% BSA, 5 mM MgCl2, 0.5 μM ATP, 250 μM GSH, 0.01 μM Ubc9-GST, 0.125 μM Sumo-Flag and 0.11 nM recombinant human SAE enzyme. The enzymatic reaction mixture with and without inhibitor, Is incubated at 24° C. for 105 min in a 384-well plate before termination with […] of Stop/Detection buffer (0.1M HEPES Hemisodium pH 7.5, 0.05% Tween20, 20 mM EDTA, 410 mM KF, 0.53 nM Europium-Cryptate labeled monoclonal anti-Flag M2 Antibody (CisBio International) and 8.125 μg/ml PHYCOLINK goat anti-GST allophycocyanin (XL-APC) antibody (Prozyme)). After incubation for 2 hours at 24° C., quantification of FRET is performed on the Pherostar™ (BMG Labtech). Percentage inhibition values at a single concentration or enzyme inhibition (IC50) values are determined from those curves. One skilled in the art will appreciate that the values generated either as percentage inhibition at a single concentration or IC50 values are subject to experimental variation.
(In general: Time-resolved FRET reads energy transfer from a long-lived donor to a nearby acceptor.)

On to `NS(=O)(=O)OC[C@H]1C[C@@H](Nc2ncncc2C(=O)c2ccn(C3CCc4ccccc43)n2)[C@H](O)[C@@H]1O` (single isomer, unassigned) [Compound I-353, {(1R,2R,3S,4R)-4-[(5-{[1-((1R)-2,3-dihydro-1H-inden-1-yl)-1H-pyrazol-3-yl]carbonyl}pyrimidin-4-yl)amino]-2,3-dihydroxycyclopentyl}methyl sulfamate or {(1R,2R,3S,4R)-4-[(5-{[1-((1S)-2,3-dihydro-1H-inden-1-yl)-1H-pyrazol-3-yl]carbonyl}pyrimidin-4-yl)amino]-2,3-dihydroxycyclopentyl}methyl sulfamate], for which the IC50 – broadly, the midpoint of a concentration-inhibition curve – lay in the range of 10 to 100 nM and the “Percent Inhibition” value is reported as 90%.

As to `CC(c1ccc(Cl)o1)n1ccc(C(=O)c2cncnc2N[C@@H]2C[C@H](COS(N)(=O)=O)[C@@H](O)C2)n1` (single isomer, unassigned) [Compound I-354, [(1R,2S,4R)-4-{[5-({1-[(1 S)-1-(5-chloro-2-furyl)ethyl]-1H-pyrazol-3-yl}carbonyl)pyrimidin-4-yl]amino}-2-hydroxycyclopentyl]methyl sulfamate or [(1R,2S,4R)-4-{[5-({1-[(1R)-1-(5-chloro-2-furyl)ethyl]-1H-pyrazol-3-yl}carbonyl)pyrimidin-4-yl]amino}-2-hydroxycyclopentyl]methyl sulfamate], the concentration for half-maximal inhibition (IC50) fell in the range of 10 to 100 nM and the inhibition (in general, the drop in the measured response relative to a control, in per cent) at 0.111 µM turned out to be 79%.

Consider `C#Cc1cccc([C@H](C)n2ccc(C(=O)c3cncnc3N[C@@H]3C[C@H](COS(N)(=O)=O)[C@@H](O)C3)n2)c1` (single isomer, unassigned) [Compound I-355], for which the 50% inhibitory concentration (IC50) is below 10 nM and the inhibition at 0.111 µM is 99%.

As to `CCC(c1cccc(Br)c1)n1ccc(C(=O)c2cncnc2N[C@@H]2C[C@H](COS(N)(=O)=O)[C@@H](O)[C@@H]2F)c1` (single isomer, unassigned) [Compound I-356, [(1R,2R,3R,4R)-4-{[5-({1-[(1S)-1-(3-bromophenyl)propyl]-1H-pyrrol-3-yl}carbonyl)pyrimidin-4-yl]amino}-3-fluoro-2-hydroxycyclopentyl]methyl sulfamate or [(1R,2R,3R,4R)-4-{[5-({1-[(1R)-1-(3-bromophenyl)propyl]-1H-pyrrol-3-yl}carbonyl)pyrimidin-4-yl]amino}-3-fluoro-2-hydroxycyclopentyl]methyl sulfamate], the concentration for half-maximal inhibition (IC50) was in the range of 10 to 100 nM and the “Percent Inhibition” value was found to be 85%.

For the compound `CC(c1ccc(C(F)(F)F)o1)n1ccc(C(=O)c2cncnc2N[C@@H]2C[C@H](COS(N)(=O)=O)[C@@H](O)[C@@H]2F)c1` (single isomer, unassigned) [Compound I-357, [(1R,2R,3R,4R)-3-fluoro-2-hydroxy-4-({5-[(1-{(1S)-1-[5-(trifluoromethyl)-2-furyl]ethyl}-1H-pyrrol-3-yl)carbonyl]pyrimidin-4-yl}amino)cyclopentyl]methyl sulfamate or [(1R,2R,3R,4R)-3-fluoro-2-hydroxy-4-({5-[(1-{(1R)-1-[5-(trifluoromethyl)-2-furyl]ethyl}-1H-pyrrol-3-yl)carbonyl]pyrimidin-4-yl}amino)cyclopentyl]methyl sulfamate], the concentration for half-maximal inhibition (IC50) was below 10 nM and the “Percent Inhibition” value worked out at 100%.

Turning to `CC(c1cccc(Br)c1)n1ccc(C(=O)c2cncnc2N[C@@H]2C[C@H](COS(N)(=O)=O)[C@@H](O)C2)n1` (single isomer, unassigned) [Compound I-358, [(1R,2S,4R)-4-{[5-({1-[(1S)-1-(3-bromophenyl)ethyl]-1H-pyrazol-3-yl}carbonyl)pyrimidin-4-yl]amino}-2-hydroxycyclopentyl]methyl sulfamate or [(1R,2S,4R)-4-{[5-({1-[(1R)-1-(3-bromophenyl)ethyl]-1H-pyrazol-3-yl}carbonyl)pyrimidin-4-yl]amino}-2-hydroxycyclopentyl]methyl sulfamate], the half-inhibitory concentration (IC50) is below 10 nM and the “Percent Inhibition” value is reported as 95%.

As to `NS(=O)(=O)OC[C@H]1C[C@@H](Nc2ncncc2C(=O)c2ccn(CC3CC3c3ccccc3)c2)[C@@H](F)[C@@H]1O` (single isomer, unassigned) [Compound I-359, [(1R,2R,3R,4R)-3-fluoro-2-hydroxy-4-{[5-({1-[(1R,2R)-(2-phenylcyclopropyl)methyl]-1H-pyrrol-3-yl}carbonyl)pyrimidin-4-yl]amino}cyclopentyl]methyl sulfamate or [(1R,2R,3R,4R)-3-fluoro-2-(hydroxy-4-{[5-({1-[(1S,2S)-(2-phenylcyclopropyl)methyl]-1H-pyrrol-3-yl}carbonyl)pyrimidin-4-yl]amino}cyclopentyl]methyl sulfamate], the IC50 was in the range of 10 to 100 nM and the “Percent Inhibition” value was determined as 68%.

On to `CC(c1cccc(Cl)c1)n1ccc(C(=O)c2cncnc2N[C@@H]2C[C@H](COS(N)(=O)=O)[C@@H](O)C2)n1` (single isomer, unassigned) [Compound I-360, [(1R,2S,4R)-4-{[5-({1-[(1S)-1-(3-chlorophenyl)ethyl]-1H-pyrazol-3-yl}carbonyl)pyrimidin-4-yl]amino}-2-hydroxycyclopentyl]methyl sulfamate or [(1R,2S,4R)-4-{[5-({1-[(1R)-1-(3-chlorophenyl)ethyl]-1H-pyrazol-3-yl}carbonyl)pyrimidin-4-yl]amino}-2-hydroxycyclopentyl]methyl sulfamate], for which the 50% inhibitory concentration (IC50) is below 10 nM and the “Percent Inhibition” value turned out to be 99%.

Regarding `CC(c1ccccc1)n1ccc(C(=O)c2cncnc2N[C@@H]2C[C@H](COS(N)(=O)=O)[C@@H](O)[C@H]2O)n1` (single isomer, unassigned) [Compound I-361, {(1R,2R,3S,4R)-2,3-dihydroxy-4-[(5-{[1-((1S)-1-phenylethyl)-1H-pyrazol-3-yl]carbonyl}pyrimidin-4-yl)amino]cyclopentyl}methyl sulfamate or {(1R,2R,3S,4R)-2,3-dihydroxy-4-[(5-{[1-((1R)-1-phenylethyl)-1H-pyrazol-3-yl]carbonyl}pyrimidin-4-yl)amino]cyclopentyl}methyl sulfamate], the IC50 lay within 10 to 100 nM and the “Percent Inhibition” value is 85%.

`CC#CC(C)n1ccc(C(=O)c2cncnc2N[C@@H]2C[C@H](COS(N)(=O)=O)[C@@H](O)C2)n1` (single isomer, unassigned) [Compound I-362, {(1R,2S,4R)-2-hydroxy-4-[(5-{[(1S)-1-(pent-3-yn-2-yl)-1H-pyrazol-3-yl]carbonyl}pyrimidin-4-yl)amino]cyclopentyl}methyl sulfamate or {(1R,2S,4R)-2-hydroxy-4-[(5-{[(1R)-1-(pent-3-yn-2-yl)-1H-pyrazol-3-yl]carbonyl}pyrimidin-4-yl)amino]cyclopentyl}methyl sulfamate]: the IC50 lay within 10 to 100 nM and the inhibition at 0.111 µM is 52%.

Take `CC(c1cccc(Br)c1)n1ccc(C(=O)c2cncnc2N[C@@H]2C[C@H](COS(N)(=O)=O)[C@@H](O)[C@@H]2F)c1` (single isomer, unassigned) [Compound I-363, [(1R,2R,3R,4R)-4-{[5-({1-[(1S)-1-(3-bromophenyl)ethyl]-1H-pyrrol-3-yl}carbonyl)pyrimidin-4-yl]amino}-3-fluoro-2-hydroxycyolopentyl]methyl sulfamate or [(1R,2R,3R,4R)-4-{[5-({1-[(1R)-1-(3-bromophenyl)ethyl]-1H-pyrrol-3-yl}carbonyl)pyrimidin-4-yl]amino}-3-fluoro-2-hydroxycyclopentyl]methyl sulfamate]: the IC50 was below 10 nM and the “Percent Inhibition” value is on record as 100%.
